ChEMBL document CHEMBL1201862, “PubChem BioAssay data set” (2004)
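Five compound concentrations were applied to cells in 96-well plates for 48 hours; endpoints were derived by simple linear interpolation of the resulting dose-response curve. At the GI50, growth is halved.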 Active and inactive are the calls of the source. Cut-off read from the data, not from the text of the source: active = GI50 up to about 1.1 µM and inactive = higher.

Columns and labels:
Experiment in all cases: NCI tumour cell line growth inhibition, 48 h
SR = system: SR
NCI-H226 = system: NCI-H226
COLO 205 = system: COLO 205
TK-10 = system: TK-10
RXF 393 = system: RXF 393
SK-OV-3 = system: SK-OV-3
HL-60 = system: HL-60
RPMI-8226 = system: RPMI-8226
HT-29 = system: HT-29
786-0 = system: 786-0
Malme-3M = system: Malme-3M
OVCAR-4 = system: OVCAR-4
MDA-MB-435 = system: MDA-MB-435
SNB-75 = system: SNB-75
OVCAR-3 = system: OVCAR-3
HCT-15 = system: HCT-15
MCF7 = system: MCF7
T47D = system: T47D
A498 = system: A498
HOP-92 = system: HOP-92

| Structure (SMILES) | GI50 (SR) | GI50 (NCI-H226) | GI50 (COLO 205) | GI50 (TK-10) | GI50 (RXF 393) | GI50 (SK-OV-3) | GI50 (HL-60) | GI50 (RPMI-8226) | GI50 (HT-29) | GI50 (786-0) | GI50 (Malme-3M) | GI50 (OVCAR-4) | GI50 (MDA-MB-435) | GI50 (SNB-75) | GI50 (OVCAR-3) | GI50 (HCT-15) [µM] | GI50 (MCF7) | GI50 (T47D) | GI50 (A498) | GI50 (HOP-92) |
| --- | --- | --- | --- | --- | --- | --- | --- | --- | --- | --- | --- | --- | --- | --- | --- | --- | --- | --- | --- | --- |
| COc1cc([N+](=O)[O-])c(S(=O)(=O)[O-])cc1-[n+]1nc(C(=O)Nc2ccccc2)nn1-c1ccc([N+](=O)[O-])c(S(=O)(=O)O)c1 | > 100 µM (inactive) | > 100 µM (inactive) | > 100 µM (inactive) | > 100 µM (inactive) | > 100 µM (inactive) | > 100 µM (inactive) | 84.7 µM (inactive) | > 100 µM (inactive) | > 100 µM (inactive) | > 100 µM (inactive) | > 100 µM (inactive) | > 100 µM (inactive) | > 100 µM (inactive) | > 100 µM (inactive) | > 100 µM (inactive) | > 100 | > 100 µM (inactive) | > 100 µM (inactive) |  |  |
| Cn1c(=O)c2c(-c3ccccc3)onc2n(C)c1=O | 36.6 µM (inactive) | > 100 µM (inactive) | 43.2 µM (inactive) | 14.4 µM (inactive) | 21.3 µM (inactive) | > 100 µM (inactive) |  | 15 µM (inactive) | 25.2 µM (inactive) | 29 µM (inactive) | 46.8 µM (inactive) | 43.2 µM (inactive) | 44.5 µM (inactive) | 24.6 µM (inactive) | 12.1 µM (inactive) | 21.1 | 12.9 µM (inactive) | 23.8 µM (inactive) | 64.1 µM (inactive) | 42 µM (inactive) |
| O=C(NNC(=O)c1cc2ccccc2[nH]1)c1cc2ccccc2[nH]1 | 66.5 µM (inactive) | > 100 µM (inactive) | > 100 µM (inactive) | > 100 µM (inactive) | > 100 µM (inactive) | > 100 µM (inactive) | 95.7 µM (inactive) | > 100 µM (inactive) | > 100 µM (inactive) | > 100 µM (inactive) | > 100 µM (inactive) | > 100 µM (inactive) | > 100 µM (inactive) | > 100 µM (inactive) | > 100 µM (inactive) | > 100 | > 100 µM (inactive) | > 100 µM (inactive) | > 100 µM (inactive) |  |
| CN(C)CCNC(=O)c1cc([N+](=O)[O-])cn1C | > 100 µM (inactive) | > 100 µM (inactive) | > 100 µM (inactive) | > 100 µM (inactive) | > 100 µM (inactive) | > 100 µM (inactive) | > 100 µM (inactive) | > 100 µM (inactive) | > 100 µM (inactive) | > 100 µM (inactive) | > 100 µM (inactive) | > 100 µM (inactive) | > 100 µM (inactive) | > 100 µM (inactive) | > 100 µM (inactive) | > 100 | > 100 µM (inactive) | > 100 µM (inactive) | > 100 µM (inactive) |  |
| COc1ccc(Cn2nc(OCc3ccccc3)c3cc([N+](=O)[O-])ccc32)cc1 | > 100 µM (inactive) | > 100 µM (inactive) |  | > 100 µM (inactive) | > 100 µM (inactive) | > 100 µM (inactive) | > 100 µM (inactive) | > 100 µM (inactive) | > 100 µM (inactive) | > 100 µM (inactive) | > 100 µM (inactive) |  | > 100 µM (inactive) | > 100 µM (inactive) | > 100 µM (inactive) | > 100 | > 100 µM (inactive) | > 100 µM (inactive) | > 100 µM (inactive) |  |
| Cc1cc(NS(=O)(=O)c2ccc(NC(=O)c3ccc4nc5ccccc5c(Nc5ccc(S(=O)(=O)Nc6cc(C)on6)cc5)c4c3)cc2)no1 | > 50 µM (inactive) | > 50 µM (inactive) | > 50 µM (inactive) | > 50 µM (inactive) | > 50 µM (inactive) | > 50 µM (inactive) | > 50 µM (inactive) | > 50 µM (inactive) | > 50 µM (inactive) | > 50 µM (inactive) | > 50 µM (inactive) | > 50 µM (inactive) | > 50 µM (inactive) | > 50 µM (inactive) | > 50 µM (inactive) | > 50 | > 50 µM (inactive) | > 50 µM (inactive) |  | > 50 µM (inactive) |
| OCCN(/N=C\c1ccc2ccccc2c1)C1=NCCN1 | 25.6 µM (inactive) | 12.9 µM (inactive) | 17.9 µM (inactive) | 37.7 µM (inactive) | 11.4 µM (inactive) | 47.9 µM (inactive) | 19 µM (inactive) | 28.8 µM (inactive) | 27.5 µM (inactive) | 25.2 µM (inactive) | 15.6 µM (inactive) | 30.8 µM (inactive) | 16.9 µM (inactive) | 20.7 µM (inactive) | 23.2 µM (inactive) | 30.5 | 36.1 µM (inactive) | 29.6 µM (inactive) |  | 16 µM (inactive) |
| O=C1CSC2(CC(/C=C/c3cccc(Br)c3)=NN2c2cccc(S(=O)(=O)O)c2)N1c1nc2ccccc2s1 (stereo not drawn) | 41.5 µM (inactive) | > 100 µM (inactive) | > 100 µM (inactive) | > 100 µM (inactive) | > 100 µM (inactive) | > 100 µM (inactive) |  | 25.5 µM (inactive) | > 100 µM (inactive) | > 100 µM (inactive) | > 100 µM (inactive) | > 77.8 µM (inactive) | 62.4 µM (inactive) | > 100 µM (inactive) | > 100 µM (inactive) | > 100 | 65.6 µM (inactive) | 38.5 µM (inactive) | > 100 µM (inactive) | > 49.7 µM (inactive) |
| CN(C)c1nncc2[nH]cnc12 | > 100 µM (inactive) | > 100 µM (inactive) | > 100 µM (inactive) | > 100 µM (inactive) | > 100 µM (inactive) |  | > 100 µM (inactive) | > 100 µM (inactive) | > 100 µM (inactive) | > 100 µM (inactive) |  |  | > 100 µM (inactive) | > 100 µM (inactive) | > 100 µM (inactive) | > 100 | > 100 µM (inactive) | > 100 µM (inactive) | > 100 µM (inactive) |  |
| NS(=O)(=O)c1cc2c(cc1Cl)NCNS2(=O)=O [HYDROCHLOROTHIAZIDE] | > 100 µM (inactive) | > 100 µM (inactive) | > 100 µM (inactive) | > 100 µM (inactive) |  |  | > 100 µM (inactive) | > 100 µM (inactive) | > 100 µM (inactive) | > 100 µM (inactive) | > 100 µM (inactive) | > 100 µM (inactive) | > 100 µM (inactive) | > 100 µM (inactive) | > 100 µM (inactive) | > 100 | > 100 µM (inactive) | > 100 µM (inactive) |  | > 100 µM (inactive) |
| COc1cc2[nH]c(=O)[nH]c2c2c(C)c[nH]c12 | > 100 µM (inactive) | > 100 µM (inactive) | > 100 µM (inactive) | > 100 µM (inactive) | > 100 µM (inactive) | > 100 µM (inactive) | > 100 µM (inactive) | > 100 µM (inactive) | > 100 µM (inactive) | > 100 µM (inactive) | > 100 µM (inactive) | > 100 µM (inactive) | > 100 µM (inactive) | > 100 µM (inactive) | > 100 µM (inactive) | > 100 | > 100 µM (inactive) | > 100 µM (inactive) | > 100 µM (inactive) |  |
| O=C(Sc1c(-c2ccccc2)c(=O)n(-c2ccccc2)c(=S)n1-c1ccccc1)c1cccs1 | 38.4 µM (inactive) | > 100 µM (inactive) | > 100 µM (inactive) | > 100 µM (inactive) |  | 35 µM (inactive) | 76 µM (inactive) | 24.4 µM (inactive) | 72.3 µM (inactive) | 49.8 µM (inactive) | 86.3 µM (inactive) | > 100 µM (inactive) | 56.4 µM (inactive) | 29.6 µM (inactive) | > 100 µM (inactive) | 34.7 | 50.4 µM (inactive) | > 100 µM (inactive) |  | 50 µM (inactive) |
| c1csc(-c2cc(-c3ccsc3)c(-c3cccs3)s2)c1 | 36.9 µM (inactive) | > 100 µM (inactive) | 23.1 µM (inactive) | > 100 µM (inactive) | 49.8 µM (inactive) |  |  |  | 43.6 µM (inactive) | > 100 µM (inactive) | 59.2 µM (inactive) | > 100 µM (inactive) | 39.4 µM (inactive) | 17.9 µM (inactive) | > 100 µM (inactive) | 44.1 | 6.75 µM (inactive) | 2.7 µM (inactive) | > 100 µM (inactive) | 32.2 µM (inactive) |
| COC(=O)/C=C(\S/C(=C(/c1ccc(OC)cc1)n1cc(C(=O)OC)c(C(=O)OC)n1)c1ccc(OC)cc1)C(=O)OC | 2.77 µM (inactive) | 48.6 µM (inactive) | 3.01 µM (inactive) | 4.33 µM (inactive) | 12.6 µM (inactive) | > 100 µM (inactive) | 2.7 µM (inactive) | 38.3 µM (inactive) | 8.04 µM (inactive) | 5.36 µM (inactive) | 13.7 µM (inactive) | 19.4 µM (inactive) | 16.7 µM (inactive) | 55.1 µM (inactive) | 3.42 µM (inactive) | 6.43 | 5.62 µM (inactive) | 3.02 µM (inactive) | > 100 µM (inactive) |  |
| COC(=O)C1(Cc2ccccc2)Cc2ccccc2C1 | 24.4 µM (inactive) | 25.6 µM (inactive) | 19.1 µM (inactive) | 21.2 µM (inactive) |  | 39.6 µM (inactive) | 14.3 µM (inactive) | 20.4 µM (inactive) | 20.4 µM (inactive) | 22.7 µM (inactive) | 15.5 µM (inactive) | 22.4 µM (inactive) | 19.2 µM (inactive) | 23.3 µM (inactive) | > 10 µM (inactive) | 26.1 | 25.1 µM (inactive) | 21.5 µM (inactive) |  | 11.5 µM (inactive) |
